What was measured:
[1] = test system: HL-60(TB); experiment: Cytotoxicity against human HL-60(TB) cells assessed as cell viability at 10 uM incubated for 48 hrs by sulforhodamine B assay relative to control; type: functional; settings: read-out: Activity
[2] = test system: NCI-H460; experiment: Cytotoxicity against human NCI-H460 cells assessed as cell viability at 10 uM incubated for 48 hrs by sulforhodamine B assay relative to control; type: functional; settings: read-out: Activity
[3] = test system: SR; experiment: Cytotoxicity against human SR cells assessed as cell viability at 10 uM incubated for 48 hrs by sulforhodamine B assay relative to control; type: functional; settings: read-out: Activity
[4] = test system: MCF7; experiment: Cytotoxicity against human MCF7 cells assessed as cell viability at 10 uM incubated for 48 hrs by sulforhodamine B assay relative to control; type: functional; settings: read-out: Activity
[5] = test system: MDA-MB-231; experiment: Cytotoxicity against human MDA-MB-231 cells assessed as cell viability at 10 uM incubated for 48 hrs by sulforhodamine B assay relative to control; type: functional; settings: read-out: Activity
[6] = test system: LOX IMVI; experiment: Cytotoxicity against human LOX IMVI cells assessed as cell viability at 10 uM incubated for 48 hrs by sulforhodamine B assay relative to control; type: functional; settings: read-out: Activity
[7] = test system: NCI-H226; experiment: Cytotoxicity against human NCI-H226 cells assessed as cell viability at 10 uM incubated for 48 hrs by sulforhodamine B assay relative to control; type: functional; settings: read-out: Activity
[8] = test system: HCT-29; experiment: Cytotoxicity against human […] cells assessed as cell viability at 10 uM incubated for 48 hrs by sulforhodamine B assay relative to control; type: functional; settings: read-out: Activity
[9] = test system: Hs-578T; experiment: Cytotoxicity against human HS-578T cells assessed as cell viability at 10 uM incubated for 48 hrs by sulforhodamine B assay relative to control; type: functional; settings: read-out: Activity
[10] = target: Serine/threonine-protein kinase B-raf (Homo sapiens, UniProt P15056); experiment: Inhibition of human BRAF using MEK1 as substrate by […] assay
Chain of Serine/threonine-protein kinase B-raf (Homo sapiens, UniProt P15056) (P15056 whole entry): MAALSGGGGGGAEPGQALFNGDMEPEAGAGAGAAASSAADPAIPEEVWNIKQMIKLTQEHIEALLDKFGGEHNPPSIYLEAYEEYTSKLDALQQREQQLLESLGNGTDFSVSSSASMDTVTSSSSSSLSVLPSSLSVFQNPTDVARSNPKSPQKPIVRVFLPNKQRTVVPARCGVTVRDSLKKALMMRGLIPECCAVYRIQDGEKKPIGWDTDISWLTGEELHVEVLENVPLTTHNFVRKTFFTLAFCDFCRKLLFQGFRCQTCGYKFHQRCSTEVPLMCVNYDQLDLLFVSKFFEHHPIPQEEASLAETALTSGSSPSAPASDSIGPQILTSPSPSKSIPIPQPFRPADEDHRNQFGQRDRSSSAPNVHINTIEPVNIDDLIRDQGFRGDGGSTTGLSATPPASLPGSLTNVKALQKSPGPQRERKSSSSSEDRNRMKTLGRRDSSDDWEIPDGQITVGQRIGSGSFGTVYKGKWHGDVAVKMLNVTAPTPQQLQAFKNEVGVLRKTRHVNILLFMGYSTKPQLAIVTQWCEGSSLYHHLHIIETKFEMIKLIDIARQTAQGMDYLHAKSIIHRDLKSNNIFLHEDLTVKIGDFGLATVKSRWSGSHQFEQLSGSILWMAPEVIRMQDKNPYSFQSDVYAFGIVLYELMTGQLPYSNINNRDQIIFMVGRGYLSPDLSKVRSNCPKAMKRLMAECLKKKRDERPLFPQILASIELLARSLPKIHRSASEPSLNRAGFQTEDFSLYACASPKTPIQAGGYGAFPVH

[11] = test system: SK-MEL-2; experiment: Cytotoxicity against human SK-MEL-2 cells assessed as cell viability at 10 uM incubated for 48 hrs by sulforhodamine B assay relative to control; type: functional; settings: read-out: Activity
[12] = target: Serine/threonine-protein kinase B-raf (Homo sapiens, UniProt P15056, V600E); experiment: Inhibition of human BRAF V600E mutant using MEK1 as substrate by […] assay
Chain of Serine/threonine-protein kinase B-raf (Homo sapiens, UniProt P15056, V600E) (P15056 2-766 V600E limits assumed): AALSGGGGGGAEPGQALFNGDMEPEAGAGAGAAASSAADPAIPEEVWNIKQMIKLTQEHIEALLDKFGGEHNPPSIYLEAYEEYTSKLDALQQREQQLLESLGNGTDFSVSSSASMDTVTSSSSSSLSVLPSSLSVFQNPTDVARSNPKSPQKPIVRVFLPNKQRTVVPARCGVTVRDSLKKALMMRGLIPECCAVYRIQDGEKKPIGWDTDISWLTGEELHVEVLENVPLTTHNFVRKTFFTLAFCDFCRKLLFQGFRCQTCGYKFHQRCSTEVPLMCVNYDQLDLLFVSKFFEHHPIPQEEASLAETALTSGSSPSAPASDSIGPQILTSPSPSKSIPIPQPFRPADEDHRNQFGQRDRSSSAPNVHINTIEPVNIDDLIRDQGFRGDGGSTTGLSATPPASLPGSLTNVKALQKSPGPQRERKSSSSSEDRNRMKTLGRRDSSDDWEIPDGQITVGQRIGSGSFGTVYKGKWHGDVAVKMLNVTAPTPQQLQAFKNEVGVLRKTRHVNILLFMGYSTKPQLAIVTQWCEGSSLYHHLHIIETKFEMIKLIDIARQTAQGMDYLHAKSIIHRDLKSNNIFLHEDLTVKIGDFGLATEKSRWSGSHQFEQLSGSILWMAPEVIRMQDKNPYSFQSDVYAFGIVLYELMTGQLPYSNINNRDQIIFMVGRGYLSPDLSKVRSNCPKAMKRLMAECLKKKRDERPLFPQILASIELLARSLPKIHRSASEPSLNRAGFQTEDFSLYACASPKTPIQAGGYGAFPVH

[13] = test system: SK-MEL-28; experiment: Cytotoxicity against human SK-MEL-28 cells assessed as cell viability at 10 uM incubated for 48 hrs by sulforhodamine B assay relative to control; type: functional; settings: read-out: Activity
[14] = test system: A-375; experiment: Cytotoxicity against human A-375 cells assessed as reduction in cell viability by MTT assay; type: functional, cell-based
[15] = test system: A549; experiment: Cytotoxicity against human A549 cells assessed as cell viability at 10 uM incubated for 48 hrs by sulforhodamine B assay relative to control; type: functional; settings: read-out: Activity
[16] = test system: MDA-MB-468; experiment: Cytotoxicity against human MDA-MB-468 cells assessed as cell viability at 10 uM incubated for 48 hrs by sulforhodamine B assay relative to control; type: functional; settings: read-out: Activity
[17] = test system: T47D; experiment: Cytotoxicity against human T47D cells assessed as cell viability at 10 uM incubated for 48 hrs by sulforhodamine B assay relative to control; type: functional; settings: read-out: Activity
[18] = target: RAF proto-oncogene serine/threonine-protein kinase (Homo sapiens, UniProt P04049); experiment: Inhibition of human CRAF using MEK1 as substrate by [gamma-33P]-ATP assay
Chain of RAF proto-oncogene serine/threonine-protein kinase (P04049 whole entry): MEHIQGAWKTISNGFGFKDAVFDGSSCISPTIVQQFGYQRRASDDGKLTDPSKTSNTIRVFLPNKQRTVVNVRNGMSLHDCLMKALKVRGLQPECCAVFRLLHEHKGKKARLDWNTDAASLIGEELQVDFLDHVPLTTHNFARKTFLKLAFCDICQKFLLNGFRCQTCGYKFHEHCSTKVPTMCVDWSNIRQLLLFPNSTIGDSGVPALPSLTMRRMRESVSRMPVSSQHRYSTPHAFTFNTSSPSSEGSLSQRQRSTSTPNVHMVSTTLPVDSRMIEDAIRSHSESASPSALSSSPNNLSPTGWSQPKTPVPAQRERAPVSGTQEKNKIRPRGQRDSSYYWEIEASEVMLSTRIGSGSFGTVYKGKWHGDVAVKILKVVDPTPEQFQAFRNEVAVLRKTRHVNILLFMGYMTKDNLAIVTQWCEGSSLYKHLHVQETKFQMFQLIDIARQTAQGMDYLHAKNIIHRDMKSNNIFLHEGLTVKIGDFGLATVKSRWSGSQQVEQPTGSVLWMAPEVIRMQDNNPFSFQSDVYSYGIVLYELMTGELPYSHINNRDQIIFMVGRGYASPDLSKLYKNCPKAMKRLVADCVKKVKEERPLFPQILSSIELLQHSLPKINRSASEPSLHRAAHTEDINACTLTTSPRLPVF

[19] = test system: SF-539; experiment: Cytotoxicity against human SF-539 cells assessed as cell viability at 10 uM incubated for 48 hrs by sulforhodamine B assay relative to control; type: functional; settings: read-out: Activity
[20] = test system: RXF 393; experiment: Cytotoxicity against human RXF 393 cells assessed as cell viability at 10 uM incubated for 48 hrs by sulforhodamine B assay relative to control; type: functional; settings: read-out: Activity
[21] = test system: DU-145; experiment: Cytotoxicity against human DU-145 cells assessed as cell viability at 10 uM incubated for 48 hrs by sulforhodamine B assay relative to control; type: functional; settings: read-out: Activity
[22] = test system: SK-MEL-28; experiment: Cytotoxicity against human SK-MEL-28 cells assessed as reduction in cell viability by MTT assay; type: functional, cell-based
[23] = test system: L132; experiment: Cytotoxicity against human L132 cells assessed as reduction in cell viability by MTT assay; type: cell-based
[24] = test system: HCT-15; experiment: Cytotoxicity against human HCT-15 cells assessed as cell viability at 10 uM incubated for 48 hrs by sulforhodamine B assay relative to control; type: functional; settings: read-out: Activity

Row | Structure (SMILES) | viability at 10 µM [1] | viability at 10 µM [2] | viability at 10 µM [3] | viability at 10 µM [4] | viability at 10 µM [5] | viability at 10 µM [6] | viability at 10 µM [7] | viability at 10 µM [8] | viability at 10 µM [9] | IC50 [10] | viability at 10 µM [11] | IC50 [12] | viability at 10 µM [13] | IC50 [14] | viability at 10 µM [15] | viability at 10 µM [16] | viability at 10 µM [17] | IC50 [18] | viability at 10 µM [19] | viability at 10 µM [20] | other results
1 | O=S(=O)(NCCCNc1nccc(-c2c(-c3cccc(F)c3)nc3sccn23)n1)c1ccc(C(F)(F)F)cc1 | 127% | 98.7% | 109% | 82.1% | 96.5% | 86.7% | 77.5% | 80.1% | 83.5% | 0.063 µM | 89.9% | 0.026 µM | 116% | 4.09 µM | 83.5% | 102% | 56% | 0.04 µM | 110% | 94.7% | viability at 10 µM [21]: 94.7%; IC50 [22]: 11.7 µM; IC50 [23]: 320 µM; viability at 10 µM [24]: 78.8%
2 | O=C(NCCNc1nccc(-c2c(-c3cccc(F)c3)nc3sccn23)n1)c1c(F)cccc1F | 86.4% | 24.8% | 26% | 17.5% | 81.2% | 32.4% | 40.7% | 20.4% | 53.3% | 0.0953 µM | 62.4% | 0.0331 µM | 51.1% | 2.7 µM | 29.1% | 54.3% | 26.7% | 0.102 µM | 65.9% | 57.1% | viability at 10 µM [21]: 50.1%; IC50 [22]: 11.4 µM; IC50 [23]: 198 µM; viability at 10 µM [24]: 31.1%
